# Ends that are not written are not given here.
# B1: mammalian SS-28 (peptide)
# peptide: SANSNPAMAPRERKAGCKNFFWKTFTSC
# Experiments:
# [1] = test system: goldfish pituitary fragments; settings: goldfish pituitary fragments in vitro; Marchant et al. 1989; cited from earlier work
# [2] = molecular target: T1, human somatostatin receptor subtype 1 (Homo sapiens, UniProt P30872); experiment: Radio-receptor assay: competitive binding of somatostatins to cloned somatostatin receptor; settings: microsomes from COS-7 cells transiently expressing the human SS type 1 receptor; compared with mammalian SS-14 and mammalian SS-28; FIG. 8
# T1 construct: expressed in transfected cells; host or cells: COS-7 cells, transient transfection with pCMV6b expression vector; microsomal membranes
# Method: Somatostatin receptor cDNA was cloned into an expression vector, transfected into a eukaryotic cell line, and expressed as a peptide on the cell's surface to characterized the binding properties of the receptor for various somatostatin ligands.
# Human somatostatin receptor subtype I cDNA was graciously obtained from Dr. Graeme Bell at the University of Chicago. Clones were prepared substantially as described in Yamada et al., Proc. Natl. Acad. Sci. USA, 89, 251-255 (1992). Briefly, a cDNA library was created by inserting total cDNA into a cloning vector. Clones containing the cDNA inserts were digested with restriction endonuclease Bg1II and subsequently subcloned in the pCMV6b expression vector (Stratagene Zap Express cDNA Synthesis Kit, La Jolla, Calif.). The resulting expression vector containing the cloned somatostatin receptor was transfected into COS-7 (American Tissue Culture Collection, Manassas, Va.) cells for peptide expression.
# Twenty-four hours after splitting cells (e.g., COS-7) into new T-75 culture flasks (Nalgene, Rochester, N.Y.), the cells were washed with phosphate-buffered saline (PBS) and Tris-buffered saline-dextrose (TBS-D) solutions. […]
# All tubes were incubated for 30-60 minutes at 37° C. while shaking. […] The resulting pellets were counted in a gamma counter to determine the binding properties of the various ligands to the somatostatin receptor.
# [3] = test system: rainbow trout; settings: in rainbow trout; Eilertson et al. 1993; cited from earlier work
# [4] = molecular target: T2, cloned human somatostatin receptor subtype 1 (human, UniProt P30872 1-391); experiment: radio-receptor competition assay, displacement of 125I-[Tyr1]-SS-14 from COS-7 microsomal membranes
# T2 construct: whole, on cells; Transiently expressed in COS-7 cells; The assay used microsomal membrane preparations of these cells, not intact cells; also called human SS type 1 receptor; human somatostatin receptor type 1
# T2 sequence (P30872 whole entry): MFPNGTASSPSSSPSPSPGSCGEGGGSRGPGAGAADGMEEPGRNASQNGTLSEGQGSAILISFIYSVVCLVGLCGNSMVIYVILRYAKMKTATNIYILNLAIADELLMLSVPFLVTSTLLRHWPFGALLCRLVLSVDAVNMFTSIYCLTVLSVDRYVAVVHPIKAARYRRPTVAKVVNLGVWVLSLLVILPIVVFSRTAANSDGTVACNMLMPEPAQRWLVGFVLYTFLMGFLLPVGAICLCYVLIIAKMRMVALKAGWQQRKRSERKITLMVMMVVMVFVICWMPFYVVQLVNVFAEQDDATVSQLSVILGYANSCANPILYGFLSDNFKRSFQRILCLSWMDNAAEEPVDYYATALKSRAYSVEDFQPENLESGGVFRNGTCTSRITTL
# Method: Briefly, cell membranes, 25–1000 µg, were added to two sets of tubes labeled for total and non-specific binding (in triplicate) containing the following reagents in a final volume of 300 µl.
# All tubes were incubated for 30–60 minutes at 37° C. while shaking. Reactions were stopped by adding 1 ml of ice-cold assay buffer and centrifuged at 20,000×g for 15 minutes. The supernatant is aspirated off. The resulting pellets were washed once with ice-cold assay buffer and centrifuged again at 20,000×g for 15 minutes. Again, the supernatant was aspirated off. The resulting pellets were counted in a gamma counter to determine the binding properties of the various ligands to the somatostatin receptor.
# T1 sequence (P30872 whole entry): as above
Molecule,ability to inhibit the release of growth hormone [1],affinity of the human somatostatin receptor type 1 for the ligand (inhibition of binding of 125I-[Tyr1]-SS-14) [2],inhibition of insulin [3],binding result [4]
Ser-Ala-Asn-Ser-Asn-Pro-Ala-Met-Ala-Pro-Arg-Glu-Arg-Lys-Ala-Gly-Cys-Lys-Asn-Phe-Phe-Trp-Lys-Thr-Phe-Thr-Ser-Cys (SANSNPAMAPRERKAGCKNFFWKTFTSC; listed as Homo sapiens) [SS-28],equipotent,,,
"salmonid SS-25: 25 amino acid PPSS-II″ proprotein containing [Tyr7, Gly10]-SS-14 at its C-terminus; synthetic (SVDNLPPRERKAGCKNFYWKGFTSC; ends and bridges not checked; cysteine pairing not given here)",no effect,greater affinity,inhibited insulin,
Ala-Gly-Cys-Lys-Asn-Phe-Phe-Trp-Lys-Thr-Phe-Thr-Ser-Cys [SS-14],equipotent,,did not,
B1,,,,binds

# Source: patent US6818739B2, “Somatostatins” (NDSU Research Foundation, priority 1999, dated 2004)
